Laboratory results published in patent US20100069387A1, “IKK Inhibitors for the Treatment of Endometriosis” (priority 2005, published 2010).

What was measured:
endometriotic lesions [1] = settings: control treatment; earlier work using this model; cited from earlier work
[2] = cited from earlier work
endometriotic lesions [3] = assay: Nude mouse xenograft model of endometriosis (human endometrial tissue injected in ovarectomized nude mice); assay type: in vivo; settings: for Lesion (% Progesterone) Compared to progesterone treated group, decrease: treatment started 10 days after tissue injection
Procedure: Human endometrial tissue was injected in ovarectomized nude mice to establish the disease (Bruner-Tran et al 2002). In brief, endometrial biopsies obtained from normal volunteers or from endometriotic patients were cut into small pieces and cultured in the presence of estradiol for 24 h. Treated tissues, were injected either subcutaneously or intraperitoneally into ovarectomized nude mice with estradiol implant. Within 2-4 days of injection, ectopic endometriotic lesions develop in animals. Treatment with either progesterone or IKK inhibitor-5 (1-(4-{4-[4-(4-Chloro-phenyl)-pyrimidin-2-ylamino]-benzoyl}-piperazin-1-yl)-ethanone) was started 10 days following the injection of tissue. The compound was administered at a dose of 10 mg/kg and 30 mg/kg/animal for 15 days. […] Following the completion of treatment, animals were sacrificed, lesions developed from the transplanted tissue found in both subcutaneous and intraperitoneal sites, were measured (both size and number).
The IKK inhibitor treatment had no effect on the uterine weight and size of the animals.

endometriotic lesions [4] = settings: experimental model of endometriosis; cited from earlier work
[5] = 10 mg/kg × 15 days, listed as IKK inhibitor
[6] = 30 mg/kg × 15 days, listed as IKK inhibitor

For `CC(=O)[C@H]1CC[C@H]2[C@@H]3CCC4=CC(=O)CC[C@]4(C)[C@H]3CC[C@]12C` [progesterone], the disease progression (endometriotic lesions [1]) is given as “prevents disease progression”.

In the case of `C#C[C@]1(O)CC[C@H]2[C@@H]3CCC4=Cc5oncc5C[C@]4(C)[C@H]3CC[C@@]21C` [Danazol], the recurrence rates ([2]; after up to 4 years) is listed as 40%-50% and the “patients suffering from pain with improved symptoms” value ([2]; endometriosis patients) is listed as 66-100%.

With `CC(=O)N1CCN(C(=O)c2ccc(Nc3nccc(-c4ccc(Cl)cc4)n3)cc2)CC1` [IKK inhibitor-5, 1-(4-{4-[4-(4-Chloro-phenyl)-pyrimidin-2-ylamino]-benzoyl}-piperazin-1-yl)-ethanone] the “Lesion size, decrease” value (endometriotic lesions [3]; 10 mg/kg × 15 days) was 90% Decrease, the “Lesion (% Progesterone) Compared to progesterone treated group, decrease” value (endometriotic lesions [3]; 10 mg/kg × 15 days) was 125% Decrease and the “Lesion (% Progesterone) Compared to progesterone treated group, decrease” value (endometriotic lesions [3]; [5]) was 125%. For the same molecule, the “Lesion size, decrease” value (endometriotic lesions [3]; [5]) was 90%, the “Lesion size, decrease” value (endometriotic lesions [3]; 30 mg/kg × 15 days) was 75% Decrease and the “Lesion (% Progesterone) Compared to progesterone treated group, decrease” value (endometriotic lesions [3]; 30 mg/kg × 15 days) was 100% Decrease. The “Lesion (% Progesterone) Compared to progesterone treated group, decrease” value (endometriotic lesions [3]; [6]) was 100%, the “Lesion size, decrease” value (endometriotic lesions [3]; [6]) was 75% and the “effect on the uterine weight and size of the animals” value (endometriotic lesions [3]; nude mice, 15 days treatment) was “no effect”.

B1: rh-TBP-1: recombinant human TNFα binding protein (protein, UniProt P19438 30-211, looked up)
extracellular domain: LVPHLGDREKRDSVCPQGKYIHPQNNSICCTKCHKGTYLYNDCPGPGQDTDCRECESGSFTASENHLRHCLSCSKCRKEMGQVEISSCTVDRDTVCGCRKNQYRHYWSENLFQCFNCSLCLNGTVHLSCQEKQNTVCTCHAGFFLRENECVSCSNCKKSLECTKLCLPQIENVKGTEDSGTT
modifications: extracellular domain
In the case of B1, the “size and severity of endometriotic lesions” value (endometriotic lesions [4]) is listed as “effective in reducing the size and severity of endometriotic lesions”.
